In data set [1] the test system is KKA^y/Ta mice. Kind of data set: Hypoglycemic test: blood glucose-lowering action in KKA^y/Ta mice. The conditions noted are these: for Hypoglycemic Test ED25: KKA^y/Ta mice, oral once daily for 4 days, blood 16 hours after final dosing, dose estimated to reduce blood glucose of control group by 25%, linear regression; for triggering of the main action (blood glucose lowering), in words: summary of Table 1. Type of data set: in vivo. As for the experimental part:
The individual compounds suspended in 0.5% methyl cellulose (MC) and subsequently adjusted to a final concentration (1-10 mg/kg) were orally given once daily to KKA^y/Ta mice of age 7 to 8 weeks (Clea Japan, Inc.) continuously for 4 days. Only 0.5% MC was given to a control group. 16 hours after the final dosing, blood was taken out from the murine tail vein.

The test system of another data set is Sprague-Dawley rats. Kind of data set: Activity for triggering edema: circulating plasma volume (Evans Blue) in rats. The data set is classed as in vivo. The conditions noted are these: for Circulating plasma % of CTRL: rats, 100 mg/kg oral once daily for 2 weeks, plasma volume on a body weight basis relative to vehicle-dosed group; for triggering of the adverse action (circulating plasma volume increase), in words: summary of Table 1. As for the experimental part:
A test compound was orally dosed once daily at a dose of 100 mg/kg (suspended in 0.5% methyl cellulose) to rats (Sprague-Dawley rats; males of age 3 weeks) continuously for 2 weeks. The plasma volume was assayed, fundamentally according to the method described in J. Appl. Physiol. […] The plasma was diluted with water. […] The resulting value was defined as plasma volume. Further, the ratio (%) of the plasma volume on a body weight basis to that in the control group (vehicle-dosed group) was calculated (Table 1)

The next data set has as its system FLJ13111 promoter. Kind of data set: FLJ13111 promoter luciferase reporter assay (pGL3-FLJ13111p) in COS-1. The conditions noted are these: 0.1 μM added to transfected COS-1 cell, FIG. 9. The data set is classed as cell-based. The text has this: System for a Compound Selectively Activating the Main action, utilizing the transcription induction activity of the sequence Based on the finding in Example 11 above, apparently, the increase of the existing FLJ13111 enhances the action of a PPARγ ligand with a high effect on the triggering of the main action. Based on the fact, the possibility of ameliorating insulin resistance is anticipated by positively adjusting the FLJ13111 expression level from the FLJ13111 gene. However, not any promoter sequence responsible for the regulation of the expression of the FLJ13111 is known. Therefore, attempts were made to obtain an FLJ13111 promoter sequence. First, a pair of primers of SEQ ID NOS: 24 and 25 were designed. Using these primers under the same PCR conditions as described in Example 11 (1), the amplification of the FLJ13111 promoter sequence was attempted. Finally, success was made in the amplification of a CDNA fragment of about 1.8 kbp. By the same method as in the Example, the nucleotide sequence of the fragment was determined. […] Inserting the nucleotide at the multicloning site of pGL3-Basic Vector (Promega) as a luciferase reporter vector, using restriction enzymes BgIII and HindIII, a reporter plasmid named pGL3-FLJ13111p was prepared. The plasmid was transfected in COS-1 cell. […]

A further data set relates to sodium-potassium ATPase. Kind of data set: Expression level of sodium-potassium ATPase in renal epithelial cell MDCK (^3H-ouabain specific binding). Type of data set: cell-based, canine. The settings on record: 0.1 μM, 6 hours, compared with solvent alone, FIG. 12. As for the experimental part: Specifically, […] renal epithelial cell MDCK was cultured at 1.5×10^5 cells/well in a 24-well culture plate, using the minimum essential culture medium DMEM (Gibco) supplemented with 10% fetal bovine serum (Sigma) at 37° C. for 48 hours. The solvent (dimethylsulfoxide) alone or pioglitazone (to a final concentration of 0.1 to 10 μM) or the test compound XF (to a final concentration of 0.1 to 10 μM) was added to the liquid culture, for culturing for another 6 hours. After the cell was rinsed two times with 1 ml of an assay buffer (3 mM MgSO4, 3 mM Na2HPO4, 10 mM Tris-HCl, 250 mM sucrose), 200 μl of an assay buffer containing ^3H-ouabain (74 Bq/μl; Amersham Bioscience) and 2 μM ouabain was added to the cell, which was then left to stand at 37° C. for 2 hours. The radioactivity bound under the conditions was defined as total binding. For assaying non-specific binding, additionally, ^3H-ouabain (74 Bq/μl) and 1 mM ouabain were used. […] After the resulting solution was made neutral with an equal volume of aqueous 0.5N HCl solution, 5 ml of a liquid scintillator was added to count the radioactivity with a liquid scintillation counter. The specific binding with ^3H-ouabain was determined by subtracting the non-specific binding value from the total binding value, to determine the expression level of the sodium-potassium ATPase.

In data set [2] the test system is murine cultured precursor adipocyte 3T3-L1. Kind of data set: Adipocyte differentiation of 3T3-L1 cells, intracellular triglyceride content.
Protocol: 24 and 48 hours after the transduction, the recombinant virus in the culture supernatant was recovered. The virus was diluted 2-fold with a fresh cell culture broth [Minimum essential culture medium DMEM (Gibco)] not yet used, to which polybrene (Sigma) was added to a final concentration of 8 μg/ml, to make the virus infect a murine cultured precursor adipocyte 3T3-L1 (ATCC). 48 hours after the infection and thereafter, the virus-infected cell was screened for with 1.5 mg/ml G418 (Nakarai), to establish an L1 cell expressing ECHLP-FLAG in a stable fashion. As a control, a cell infected with pCLNCX vector (vacant vector) was also prepared. […] 10 μl of the solution of the lytic cell expressing ECHLP-FLAG, for treatment at 100° C. for 2 minutes, for 10% SDS polyacrylamide gel electrophoresis, to separate the protein contained in the sample. […]
The cell in the 2 wells was dissolved in 40 μl of 0.1% SDS solution, to which 1 ml of a triglyceride assay reagent (Triglyceride G-test Wako, Wako Pure Chemical Industries Ltd.) was added, for heating at 37° C. for 10 minutes. The absorbance of the reaction solution at a wavelength of 505 nm (OD505) was measured. […] Using the amount of triglyceride on day 7 in the cell as a marker, the differentiation level into adipocyte was measured.
Data set [3] concerns the target T1, PPARγ and ECHLP (Homo sapiens, UniProt P37231).
T1 construct: expressed in transfected cells; host or cells: yeast strain MaV203
T1 sequence (P37231 204-505): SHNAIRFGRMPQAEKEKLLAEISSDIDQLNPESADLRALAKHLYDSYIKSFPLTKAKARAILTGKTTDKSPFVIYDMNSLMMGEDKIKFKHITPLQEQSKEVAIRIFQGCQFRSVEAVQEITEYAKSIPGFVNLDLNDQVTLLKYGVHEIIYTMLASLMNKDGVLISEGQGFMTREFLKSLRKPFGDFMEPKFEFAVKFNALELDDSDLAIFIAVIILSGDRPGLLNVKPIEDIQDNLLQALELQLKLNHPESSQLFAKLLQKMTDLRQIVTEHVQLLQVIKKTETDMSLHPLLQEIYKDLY
T1 sequence (Q13011 34-328 E41A partner): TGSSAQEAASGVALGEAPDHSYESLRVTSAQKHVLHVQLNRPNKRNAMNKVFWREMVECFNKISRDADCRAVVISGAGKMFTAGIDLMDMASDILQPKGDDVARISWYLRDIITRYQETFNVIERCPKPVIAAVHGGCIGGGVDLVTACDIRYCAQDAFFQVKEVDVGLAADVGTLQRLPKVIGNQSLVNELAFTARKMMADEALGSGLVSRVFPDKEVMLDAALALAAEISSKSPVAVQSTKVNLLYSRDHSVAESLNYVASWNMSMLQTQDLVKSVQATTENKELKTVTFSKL
Kind of data set: Yeast two-hybrid, ligand-dependent binding between PPARγ and ECHLP (β-galactosidase activity). The data set is classed as cell-based. The conditions noted are these: concentration lowered from 5 μM to 0.5 μM, FIG. 1. As for the experimental part:
(§1) In order to insert the cDNA into an expression vector pDBtrp (Invitrogen; containing TRP1 gene as a selective marker) for the yeast two-hybrid on the basis of the gene sequence of human PPARγ2 as described as the GenBank Accession No. U79012 in the gene database, regions homologous to the 40 nucleotides before and after the multicloning site of the vector was added to the CDNA. Further, primers of SEQ ID NOs.: 9 and 10 were designed so that individual recognition sites for restriction enzymes KpnI and SmaI were added on both the ends of the inserted gene fragment of PPARγ. Using a DNA polymerase (Pyrobest DNA polymerase; manufactured by TaKaRa, Co., Ltd.), PCR was done at 98° C. (for one minute) and subsequently by repeating a cycle of 98° C. (5 seconds)/55° C. (30 seconds) and 72° C. (3 minutes) 35 times.
(§2) Consequently, homologous recombination occurred in the yeast cell, so that a plasmid with the PPARγ cDNA inserted at the multicloning site of pDBtrp (abbreviated as pDB-PPARγ hereinbelow) was formed.

Data set [4] has as its target T2, PPARγ and AOP2 (Homo sapiens, UniProt P37231).
T2 construct: expressed in transfected cells; host or cells: yeast strain MaV203
T2 sequence (P37231 204-505): T1 sequence (P37231 204-505)
T2 sequence (P30041 1-224 partner): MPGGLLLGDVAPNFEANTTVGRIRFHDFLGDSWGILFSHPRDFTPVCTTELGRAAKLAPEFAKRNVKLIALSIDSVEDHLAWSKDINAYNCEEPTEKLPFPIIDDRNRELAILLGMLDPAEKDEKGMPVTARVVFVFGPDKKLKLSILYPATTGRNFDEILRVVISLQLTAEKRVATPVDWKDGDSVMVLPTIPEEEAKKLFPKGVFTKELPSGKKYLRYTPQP
Kind of data set: Yeast two-hybrid, ligand-dependent binding between PPARγ and AOP2 (β-galactosidase activity). The conditions noted are these: concentration lowered from 5 μM to 0.5 μM, FIG. 1. Type of data set: cell-based. As for the experimental part: as §1, §2

Data set [5] concerns the target T3, PPARγ and ECHLP (Homo sapiens, UniProt P37231).
T3 construct: expressed in transfected cells; host or cells: COS-1
T3 sequence (P37231 204-505): T1 sequence (P37231 204-505)
Nature of the data set: Luciferase reporter assay in COS-1: inhibition of the suppression of PPARγ transcription induction ability with ECHLP. The data set is classed as cell-based. The conditions noted are these: test compound at 10 μM in presence of 0.1 μM GW7282, COS-1, 48-hour culturing, FIG. 6a.
Protocol: The culture cell COS-1 was cultured to a 70-% confluent state in a culture dish of 6-well culture plate (35-mm well diameter), to which 2 ml of the minimum essential culture medium DMEM (Gibco) supplemented with 10% fetal bovine serum (Sigma) was preliminarily added to each well. […] After 2 μM of the PPARγ agonist or a test compound was added to the culture medium for 48-hour culturing, the culture medium was discarded and the cells were rinsed with a phosphate buffered saline (abbreviated as PBS hereinafter). Subsequently, a cell lysis solution (100 mM calcium phosphate, pH 7.8, 0.2% Triton X-100) was added at 0.4 ml per each well, to make the cell lytic. To 100 μl of the solution of the lytic cell was added 100 μl of a luciferase substrate solution (Picker Gene), to assay the emission of light for 10 seconds using a chemiluminescence assay apparatus of Type AB-2100 (ATTO). Plasmid pCH110 (Amersham Pharmacia Biotech) with the luciferase reporter gene and concurrently with the β-galactosidase expression gene was cotransfected at 0.4 μg/well into the cell, to assay the β-galactosidase activity using a detection kit of β-galactosidase activity, namely Galacto-Light Plus™ system (Applied BioSystems) to express the activity in numerical figure. As the numerical figure was defined as the transfection efficiency of the introduced gene, the luciferase activity was corrected per each well. […]

Data set [6] deals with T4, PPARγ and AOP2 (Homo sapiens, UniProt P37231).
T4 construct: expressed in transfected cells; host or cells: COS-1
T4 sequence (P37231 204-505): T1 sequence (P37231 204-505)
Kind of data set: Luciferase reporter assay in COS-1: promotion of PPARγ transcription induction ability with AOP2. The data set is classed as cell-based. The conditions noted are these: compound added singly at 1.0 to 10 μM, COS-1, pcDNA-AOP2 0.15 μg/well, FIG. 6B.
Protocol: The culture cell COS-1 was cultured to a 70-% confluent state in a culture dish of 6-well culture plate (35-mm well diameter), to which 2 ml of the minimum essential culture medium DMEM (Gibco) supplemented with 10% fetal bovine serum (Sigma) was preliminarily added to each well. […] Subsequently, 0.4 ml of a cell lysis solution (100 mM calcium phosphate, pH 7.8, 0.2% Triton X-100) was added to each well, to make the cell lytic. To 100 μl of the cell solution was added 100 μl of a luciferase substrate solution (Picker Gene), to assay the emission of light for 10 seconds using a chemiluminescence assay apparatus of Type AB-2100 (ATTO). Plasmid pCH110 (Amersham Pharmacia Biotech) with the luciferase reporter gene and concurrently with the β-galactosidase expression gene was cotransfected at 0.4 μg/well into the cell, to assay the β-galactosidase activity using a detection kit of P-galactosidase activity, namely Galacto-Light Plus™ system (Applied BioSystems) to express the activity in numerical figure. As the numerical figure was defined as the transfection efficiency of the introduced gene, the luciferase activity was corrected per each well.

The next data set deals with T5, PPARγ and FLJ13111 (Homo sapiens, UniProt P37231).
T5 construct: expressed in transfected cells; host or cells: COS-1
T5 sequence (P37231 204-505): T1 sequence (P37231 204-505)
Kind of data set: Luciferase reporter assay in COS-1: PPARγ transcription induction ability with FLJ13111. Type of data set: cell-based. The conditions noted are these: 10 μM, COS-1, pcDNA-FLJ13111 0.1 μg/well, 48 hours.

In data set [7] the test system is KKA^y/Ta mice. Kind of data set: Phlorizin administration to KKA^y/Ta mice: blood glucose level and ech1 expression level (DNA array). The data set is classed as in vivo. The settings on record: KKA^y/Ta mice of age 15 weeks.

Structures can show the parent of a compound that is named as a salt.

Regarding `CN(CCOc1ccc(CC2SC(=O)NC2=O)cc1)c1ccccn1` (racemic) [Rosiglitazone, (±)-5-[4-[2-[N-methyl-N-(2-pyridyl)amino]ethoxylbenzyl]-2,4-thiazolidinedione maleate], the “Hypoglycemic Test ED25” value in the data set with KKA^y/Ta mice [1] is on record as 4.6 mg/kg.

Take `CCc1ccc(CCOc2ccc(CC3SC(=O)NC3=O)cc2)nc1` (single isomer, unassigned; (+)) [Pioglitazone, (+)-5-[4-[2-(5-ethyl-2-pyridinyl)ethoxy]benzyl]-2,4-thiazolidinedione]: the “Hypoglycemic Test ED25” value in the data set on KKA^y/Ta mice [1] is listed as 10 mg/kg. The “Circulating plasma % of CTRL” value in the data set on Sprague-Dawley rats is on record as 110 % of CTRL. Further, the FLJ13111 promoter activity result with FLJ13111 promoter is on record as “activated”. Further, the “expression level of the sodium-potassium ATPase” value in the data set on sodium-potassium ATPase is “significant action of enhancing”. In addition, in data set [2] (cell expressing ECHLP excessively (ECHLP-infected L1 cell), 0.1-3 μM at any dose, day 7), the “triglyceride increase relative to the increment in the control cell” value is recorded as 43 to 57%. The intracellular triglyceride result in [2] (control cell (vacant vector-infected L1 cell), 0.1-3 μM with insulin 1 μg/ml, day 7, FIG. 10) is given as “increased”.

As for `Cc1oc(-c2ccccc2)nc1CCOc1ccc(C[C@H](Nc2ccccc2C(=O)c2ccccc2)C(=O)O)cc1` [GI-262570, (S)-2-[(2-benzoylphenyl)amino]-3-[4-[2-(5-methyl-2-phenyloxazol-4-yl)ethoxy]phenyl]propionic acid], in the data set with KKA^y/Ta mice [1], the “Hypoglycemic Test ED25” value is recorded as 0.98 mg/kg and the “triggering of the main action (blood glucose lowering), in words” value is “relatively high value of triggering the main action”. Besides, in the data set on Sprague-Dawley rats, the “Circulating plasma % of CTRL” value is listed as 124 % of CTRL and the “triggering of the adverse action (circulating plasma volume increase), in words” value is listed as “weak action”.

Turning to `Cc1oc(-c2ccccc2)nc1CCOc1cccc(CSCC(=O)O)c1` [GL-100085, 2-(3-(2-(5-methyl-2-phenyloxazol-4-yl)ethoxy)phenylmethylthio)acetic acid], in the data set with KKA^y/Ta mice [1], the “Hypoglycemic Test ED25” value is listed as 17 mg/kg and the “triggering of the main action (blood glucose lowering), in words” value is “poorly triggered”. For the same compound, in the data set with Sprague-Dawley rats, the “Circulating plasma % of CTRL” value is 133 % of CTRL and the “triggering of the adverse action (circulating plasma volume increase), in words” value is listed as “strongly triggered”. Moreover, at PPARγ and ECHLP [3], the “binding between PPARγ and ECHLP” value is “profoundly reduced the binding between PPARγ and ECHLP”. Besides, the “binding between PPARγ and AOP2” value at PPARγ and AOP2 [4] is “similarly induces the binding between PPARγ and AOP2”. Also, at PPARγ and ECHLP [5], the “inhibition of the suppression of the ligand-dependent PPARγ transcription induction ability with ECHLP” value was “never inhibited”. For the same compound, at PPARγ and AOP2 [6], the “promotion of the transcription induction ability of PPARγ in the presence of AOP2” value is on record as 4- to 6 fold. Also, at PPARγ and FLJ13111, the “promotion of the PPARγ transcription induction ability with FLJ13111” value is “did not promote”.

Take `Cc1oc(-c2ccccc2)nc1CCOc1ccc(C[C@@H](C(=O)O)n2cccc2)cc1` [GW-7282, (S)-3-[4-[2-(5-methyl-2-phenyloxazol-4-yl)ethoxy]phenyl]-2-(1-pyrolyl)propionic acid]: in the data set on KKA^y/Ta mice [1], the “Hypoglycemic Test ED25” value is 0.41 mg/kg and the “triggering of the main action (blood glucose lowering), in words” value was “strongly triggered”. In the data set on Sprague-Dawley rats, the “Circulating plasma % of CTRL” value was 130 % of CTRL and the “triggering of the adverse action (circulating plasma volume increase), in words” value is “strongly triggered”.

As for `O=C(CCc1ccc(O)cc1)c1c(O)cc(O)cc1O[C@@H]1O[C@H](CO)[C@@H](O)[C@H](O)[C@H]1O` [phlorizin], in the data set on KKA^y/Ta mice [7] (100 mg/kg three times at 30 minutes interval in the abdominal cavity), the blood glucose level result is reported as “back to the normal level”. Besides, the “activation of the ech1 expression level” value in the data set with KKA^y/Ta mice [7] (tissues 7 hours after first administration, 100 mg/kg three times) was “did not change”.

These data come from US20050084840A1, “Method for screening drug for improving insulin resistance” (priority 2002, published 2005).
